Measurements published in US11142535B2, “Heterocyclic compound as Syk inhibitor and/or Syk-HDAC dual inhibitor” (Hangzhou Innogate Pharma Co., Ltd., priority 2016, dated 2021).

Tests used:
[1] = molecular target: SYK protein kinase (Homo sapiens (Human), UniProt P43405); test: Syk kinase activity inhibition, Caliper mobility shift assay; type: biochemical; conditions: Peptide FAM-P22 and ATP, 30 minutes, 28° C.
Protocol: Measure of SYK protein kinase activity was carried out by using the Caliper mobility shift assay. The compound was dissolved with DMSO and diluted with kinase buffer (20 mM HEPES pH 7.5, 0.01% Triton X-100, 5 mM MgCl2, 1 mM MnCl2, 2 mM DTT), and 5 μl of 5 times the final concentration of the compounds (10% DMSO) were added to 384 well plate. […] The mixture was incubated for 30 minutes under 28° C., and 25 μl of stop buffer (100 mM HEPES pH 7.5, 0.015% Brij-35, 0.2% Coating Reagent #3, 50 mM EDTA) was added to terminate the reaction. Conversion rate data was read by Caliper EZ Reader II (Caliper Life Sciences). Conversion rate was converted to inhibition rate data (% inhibition rate=(max−conversion rate)/(max−min)*100). The max refers to the conversion rate of the DMSO control, and min refers to the conversion rate of the enzyme-free control. The curve was drawn with the compound concentration and inhibition rate as the horizontal and vertical coordinates, and the curve was fitted with the XLFit excel add-in version 4.3.1 Software, and IC50 was calculated.

[2] = molecular target: HDAC1 (Homo sapiens (Human), UniProt Q13547); test: HDAC-1 activity inhibition, fluorescence (Synergy MX); type: biochemical; conditions: trypsin and Ac-peptide substrate, 60 minutes, room temperature
Chain of HDAC1 (Q13547 whole entry, species assumed): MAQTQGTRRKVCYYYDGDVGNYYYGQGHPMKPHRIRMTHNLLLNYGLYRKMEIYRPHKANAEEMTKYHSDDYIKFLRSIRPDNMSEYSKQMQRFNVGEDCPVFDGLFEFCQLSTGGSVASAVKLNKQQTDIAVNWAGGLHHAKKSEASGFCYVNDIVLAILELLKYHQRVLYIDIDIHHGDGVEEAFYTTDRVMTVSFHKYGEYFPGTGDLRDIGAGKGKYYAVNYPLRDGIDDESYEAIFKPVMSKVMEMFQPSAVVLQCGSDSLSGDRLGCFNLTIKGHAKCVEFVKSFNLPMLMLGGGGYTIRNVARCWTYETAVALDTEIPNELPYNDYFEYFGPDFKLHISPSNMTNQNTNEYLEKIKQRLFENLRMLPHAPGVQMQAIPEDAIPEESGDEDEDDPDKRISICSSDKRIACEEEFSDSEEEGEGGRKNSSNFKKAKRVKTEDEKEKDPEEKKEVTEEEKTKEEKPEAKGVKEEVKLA
Protocol: HDAC activity was measured by the Synergy MX Multi-Function Microplate Reader. The compounds were dissolved with DMSO, and transferred to a 384 well test plate using an Echo non-contact nanoscale sonic pipetting system. 15 μl of enzyme (HDAC1/HDAC6, respectively) solvent was added, and incubated at room temperature for 15 minutes, then 10 μl of substrate (trypsin and Ac-peptide) solution was added. […] Fluorescence intensity signal was convented into inhibition rate data (% inhibition rate=(max−fluorescence intensity)/(max−min)*100). The max refers to the fluorescence intensity of the DMSO control, and min refers to the fluorescence intensity of the enzyme-free control. The curve was drawn with the compound concentration and inhibition rate as the horizontal and vertical coordinates, and the curve was fitted with the GraphPad Prism V5.0 Software, and IC50 was calculated.

SMILES | IC50 [1] | IC50 [2]
O=C(N1CCN2c3ccc(Nc4nc(-c5ccc6cn[nH]c6c5)cn5ccnc45)cc3OC[C@H]2C1)C(F)(F)F [Compound 9R] | < 0.1 µM | 
O=C(NO)c1ccc(NC(=O)c2cccc(-c3cn4ccnc4c(Nc4ccc(N5CCOCC5)cc4)n3)c2)cc1 [Compound 13] | < 0.1 µM | < 0.2 µM
O=C(CCCCCCn1ncc2ccc(-c3cn4ccnc4c(Nc4ccc(N5CCOCC5)cc4)n3)cc21)NO [Compound 14] | < 0.5 µM | < 0.02 µM
CN(CCCCCCC(=O)NO)c1ccc(Nc2nc(-c3ccc4cn[nH]c4c3)cn3ccnc23)cc1 [Compound 20] | < 0.05 µM | < 0.02 µM
CN(CCOCCC(=O)NO)c1ccc(Nc2nc(-c3ccc4cn[nH]c4c3)cn3ccnc23)cc1 [Compound 22] | < 0.05 µM | < 0.5 µM
CN(CCN(C)c1ncc(C(=O)NO)cn1)c1ccc(Nc2nc(-c3ccc4cn[nH]c4c3)cn3ccnc23)cc1 [Compound 23] | < 0.05 µM | < 0.03 µM
